Test results: patent US20240041733A1, “DENTAL CARE COMPOSITION AND METHOD OF PROMOTING CALCIFICATION IN LIVING BODY TISSUE” (KINJIRUSHI CO., LTD., priority 2020, published 2024)
Entries after “also recorded” stand apart in the source; their conditions may differ.

What was measured:
[1] = test system: Human odontoblast (HOB) cells; experiment: Evaluation of calcification promoting action using human odontoblasts (Alizarin red and von Kossa staining); format: cell-based; conditions: for calcification promoting action: calcification medium with additive, Alizarin red / von Kossa staining; for relative calcification promoting action (comparison among compounds): compared by concentration of particularly high action and by extent of staining at 50 μM
Procedure: 1. Cultivation of Human Odontoblast (Human Odontoblast (HOB) Cells)
HOB cells are seeded in a T75 flask and cultivated until confluency was achieved. A culture medium (hereinafter referred to as “regular medium”) was prepared by adding 10% of fetal bovine serum (FBS) (Life Technologies Ltd.; Product No. 10437-028), 1% of penicillin-streptomycin (Life Technologies Ltd.; Product No. 15140-122), 1% of amphotericin B (Sigma-Aldrich, Product No. A2942-100ML) to MEMα (Life Technologies Ltd.; Product No. 12561-049, 12561-056). Cultivation was performed under an environment with a temperature of 37° C. and 5% of CO2.
Then the HOB Cells were seeded on an adherent cell cultivation plate (Sumitomo Bakelite Co., Ltd) such that the cell density per 1 well was 1.78 to 2.56×10^5 cells/mL, and cultivated under the same environment. As the adherent cell cultivation plate, plates having 6 to 96 wells were appropriately used.
Four days later, each culture medium was changed from the regular medium to a calcification medium, or to a culture medium (hereinafter, referred to as “additive containing calcification medium”) prepared by adding additional components shown in the following Table 4 and Table 5 to the calcification medium so as to achieve the concentrations shown in Table 4 and Table 5. The calcification medium is prepared by adding L (+)-ascorbic acid (Wako Pure Chemical Industries, Ltd. (currently Fujifilm Wako Pure Chemical Corporation), Product No. 016-04805) to the aforementioned regular mediums such that the concentration in the calcification medium (that is, the final concentration) was 50 μg/mL, and by adding β-glycerophosphoric acid (Fujifilm Wako Pure Chemical Corporation, Product No. 191-02042) to the aforementioned regular mediums such that the concentration in the calcification medium (that is, the final concentration) is 10 mM.
Then, the cultivation was performed under the environment at 37° C. with 5% of CO2 for 21 or 28 days while exchanging the calcification medium or the additive containing calcification medium twice a week. Then the following staining was performed.
Alizarin red staining and von Kossa staining were performed to evaluate calcification promoting effect.
Each well was washed twice using Dulbecco's phosphate buffered saline (DPBS) (Life Technologies Ltd.; Product No. 14190-144) the amount of which was equal to the specified amount of culture medium in the adherent cell cultivation plate. After removing the DPBS from each well, 4% paraformaldehyde phosphate buffer solution (Fujifilm Wako Pure Chemical Corporation, Product No. 163-20145), the amount of which was equal to a half the amount of the specified amount of the culture medium, was introduced to each well, and each well was left for five minutes at a room temperature.
Then, each well was washed twice using the DPBS the amount of which was equal to the specified amount of the culture medium. After removing the DPBS from each well, Alizarin red staining solution, the amount of which was equal to a half the amount of the specified amount of the culture medium, was introduced to each well, and each well was left for ten minutes. The Alizarin red staining solution was prepared by dissolving a commercially available staining solution (Product name: “Alizarin red S”, Wako Pure Chemical Industries, Ltd. (currently Fujifilm Wako Pure Chemical Corporation), Product No. 011-01192) with ultrapure water (Milli-Q (registered trademark) water), and the pH was adjusted to be within a range from 6.36 to 6.40 using ammonium hydroxide solution.
Each well was then washed five times using the ultrapure water (same as above), the amount of which was equal to the specified amount of the culture medium.
Each well was washed three times using the Dulbecco's phosphate buffered saline (DPBS) (same as above) the amount of which was equal to the specified amount of the culture medium in the adherent cell cultivation plate.

[2] = used in human, dental clinical practices; cited from earlier work

| SMILES | calcification promoting action ([1]; HOB cells, 21 or 28 days) | relative calcification promoting action (comparison among compounds) [1] | also measured |
| --- | --- | --- | --- |
| C[S+]([O-])CCCCN (stereo not shown) [4-MS amine, 4-methylsulfinylbutyl amine, reference compound] | completely no calcification promoting action |  |  |
| C[S+]([O-])CCCCN=C=S (stereo not shown) [4-MSITC, 4-methylsulfinylbutyl isothiocyanate] | possess calcification promoting action | particularly high |  |
| CS(=O)(=O)CCCCCCN=C=S [6-MSFITC, 6-methylsulfonylhexyl isothiocyanate] | possess calcification promoting action | particularly high; also recorded: higher calcification promoting action than the 4-MSITC |  |
| C[S+]([O-])CCCCCCCCN=C=S (stereo not shown) [8-MSITC, 8-methylsulfinyloctyl isothiocyanate] | possess calcification promoting action | particularly high; also recorded: about the same as the calcification promoting action of the 4-MSITC |  |
| C=CCN=C=S [AITC, allyl isothiocyanate, reference compound] | completely no calcification promoting action |  | calcification action ([1]; range up to 500 μM): not exhibited |
| S=C=NCCc1ccccc1 [PITC, phenethyl isothiocyanate] | possess calcification promoting action |  | concentration at which particularly high calcification promoting action was observed ([1]; HOB cells, 21 or 28 days, staining): ≥ 500 µM |
| [Ca+2].[OH-].[OH-] [calcium hydroxide] |  |  | normal duration of time until calcification occurs [2]: three months |
| CCN[C@H]1C[C@H](C)S(=O)(=O)c2sc(S(N)(=O)=O)cc21 [dorzolamide, reference compound] |  |  | effect on calcification when used with 6-methylsulfinylhexyl isothiocyanate ([1]; dorzolamide, inhibitor of carbonic anhydrase, used with 6-MSITC): calcification is inhibited |
